Assay results from PMC11681159, “Bee pollen peptides as potent tyrosinase inhibitors with anti-melanogenesis effects in murine b16f10 melanoma cells and zebrafish embryos” (Scientific Reports, 2024).
Ends that are not written are not given here.

System: Trp-1
Assay: Western blot, TRP-1 protein
Type: cell-based, mouse
Details: B16F10, 48 h
Method: Western blot analysis was performed to measure TYR (TYR, TRP-1, TRP-2, and MITF) in B16F10 cells in line with the approach discussed by Yoon et al.[65]. whereby the B16F10 cells underwent treatment for 48 h using various peptide amounts ([…]) and also with arbutin (0.2 mM). Following this process, the cells were lysed using NP40 Cell Lysis Buffer with protease inhibitor cocktail supplementation. Next, 12% sodium dodecyl sulfate poly-acrylamide (SDS-PAGE) gel electrophoresis was used to extract equal quantities of protein from each sample, with subsequent transfer to PVD (polyvinylidene fluoride) membranes (Millipore, Bedford, MA, USA). The membrane was blocked overnight with 3% skimmed milk (w/v) in TBST with 0.5% Tween 20 at 4 °C and then washed thrice in TBST. The rabbit polyclonal anti-TYR antibody (dilution 1:1000), anti-TRP-1 antibody (dilution 1:1000), anti-TRP-2 antibody and anti-MITF antibody (dilution 1:1000) obtained from Abcam (USA), were used respectively to detect the TYR, TRP-1, TRP-2, and MITF bands. After thrice washing again in TBST, secondary antibodies (dilution 1:5000) were added to the membranes for 1 h of incubation at room temperature before another triplicate washing in TBST. […] The software facilitated the identification and quantification of protein expression levels.

Sequence: VDGYPAAGY [VY-9, Val-Asp-Gly-Tyr-Pro-Ala- Ala-Gly-Tyr]
- TRP-1 protein expression vs control (1.6 µM): the expression of all proteins decreased compared to the control
- concentration from which TRP-1 protein expression gradually decreased (western blot): 0.2 µM
